{
  "source": "patent US20110059076A1",
  "about": "“HUMAN SERUM ALBUMIN LINKERS AND CONJUGATES THEREOF” (priority 2008, published 2011)",
  "key": {"[1]": {"system": "ErbB3 phosphorylation in ZR75-30 cells", "assay": "HRG-induced ErbB3 phosphorylation ELISA in ZR75-30", "assay_type": "cell-based, human", "conditions": "ZR75-30, dose titration 24 hours, 5 nM HRG 1β EGF domain 10 minutes", "method": "(§1) Except as noted, ELISA reagents for total and phospho-ErbB3 ELISAs are purchased from R&D Systems as DUOSET kits. 96-well NUNC MAXISORB plates are coated with 50 μl of an antibody and incubated overnight at room temperature. Next morning, plates are washed 3 times with 1000 μl/well in a BIOTEK plate washer with Dulbecco's phosphate buffered saline without calcium or magnesium (PBS) with added Tween detergent (PBST) (0.05% Tween-20). […] The plates are washed 3 times with 1000 μl/well in the BIOTEK plate washer with PBST. Cells are grown at 37° C. and 5% carbon dioxide, washed with cold PBS, then harvested with mammalian protein extract (MPER) lysis buffer (Pierce, 78505) to which 150 mM NaCl, 5 mM sodium pyrophosphate, 10 uM bpV (phen), 50uM phenylarsine, 1 mM sodium orthovanadate, and protease inhibitor cocktail (Sigma, P2714) is added. 50 μL of cell lysates and standards diluted in 50% Lysis buffer and 1% BSA are used in duplicates for further processing. Samples are incubated for 2hrs at 4° C. on a plate shaker and washed as before. About 50 μl of a detection antibody diluted in 2% BSA, PBST is added and incubated for about 1-2 hrs at room temperature. […] About 50 μL of SUPERSIGNAL ELISA Pico (Thermo Scientific) substrate is added and the plate is read using a FUSION plate reader. […]"}, "[2]": {"system": "ErbB3 phosphorylation in ZR75-1 breast cancer cells", "assay": "agonistic activity: pErbB3 ELISA in ZR75-1 cells without HRG", "assay_type": "cell-based", "conditions": "serum starved ZR75-1 cells, 1 μM, 24 hours, no HRG", "method": "as §1\nCells are lysed and the pErbB3 content of the lysates is assessed by ELISA generally as described above."}, "[3]": {"system": "10 tumor xenograft models", "assay": "activity in 10 tumor xenograft models versus ErbB2 expression", "assay_type": "in vivo", "conditions": "low to high ErbB2"}, "[4]": {"system": "CD31 in BT474-M3 breast cancer xenograft tumors", "assay": "CD31 staining (vessel density) of xenograft tumors", "assay_type": "in vivo", "conditions": "30 mg/kg every 3 days, 4 doses", "source_text": "Tumors are stained for the presence of vascular marker CD31."}},
  "note": "“Also recorded” adds a separate entry of the source.",
  "data": [
    {"substance": "B2B3-1: bispecific scFv antibody fusion: anti-ErbB3 scFv H3 and anti-ErbB2 scFv B1D2 joined by a modified human serum albumin (HSA) linker", "values": [
      {"measurement": "inhibition of HRG induced ErbB3 phosphorylation", "setting": "[1]", "value": "inhibits"},
      {"measurement": "levels of phosphorylated ErbB3 with B2B3-1 alone (agonistic activity)", "setting": "[2]", "value": "comparable to the levels in untreated cells; also recorded: does not stimulate ErbB3 phosphorylation"},
      {"measurement": "xenograft response in relation to ErbB2 expression levels", "setting": "[3]", "value": "correlates positively"},
      {"measurement": "vessel density (CD31) compared to HSA treated tumors", "setting": "[4]", "value": "marked decrease in vessel density; also recorded: reduction of vessel density"}
    ]}
  ]
}
